The target of experiment [1] is T1, HEV-PLpro (HEV papain-like cysteine protease) (Hepatitis E virus (strain Pakistan), UniProt P33424).
T1 sequence (P33424 432-592): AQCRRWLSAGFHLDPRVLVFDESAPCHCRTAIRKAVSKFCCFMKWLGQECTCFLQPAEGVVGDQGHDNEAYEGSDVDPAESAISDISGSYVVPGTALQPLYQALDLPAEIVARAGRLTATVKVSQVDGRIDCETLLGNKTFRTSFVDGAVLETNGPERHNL
The experiment is described as follows: fluorogenic protease assay. It counts as biochemical.

The target of experiment [2] is T1, HEV-PLpro (HEV papain-like cysteine protease). The experiment is described as follows: fluorogenic protease assay, secondary plot of Km' vs [I]. It counts as biochemical.

A word on the IC50: it is the point on the concentration scale where inhibition reaches its midpoint. The Ki is the dissociation constant of the complex between target and ligand, obtained from inhibition or displacement. Read a low Ki as tighter binding. With `NC(=O)c1ncn([C@@H]2O[C@H](CO)[C@@H](O)[C@H]2O)n1` [RBV, ribavirin], the IC50 in experiment [1] was 78.3 µM. In experiment [2], this molecule had a Ki of 47.6 µM.

For the origin of these results see publication doi:10.1101/2025.08.17.670703v1 (biorxiv, 2025).
